Experimental data published in patent US20250206761A1, “HALOINDOLE MACROCYCLIC COMPOUNDS FOR THE TREATMENT OF CANCER” (Hoffmann-La Roche Inc., priority 2022, published 2025).

Key:
[1] = molecular target: T1, KRAS G12C-BRAF complex (Homo sapiens (Human), UniProt P01116+P62937, G12C); experiment: KRAS G12C-BRAF NanoBit assay; format: cell-based; conditions: HEK293 cells, 3 hours of incubation
Procedure: This assay is to measure the ability of tested compounds in disruption of the KRAS G12C-BRAF complex at the cellular level, we established the NanoBit cellular assay in mammalian HEK293 (ATCC) cells.
HEK293 cells were grown and maintained using DMEM medium (Thermo Fisher Scientific) with 10% fetal bovine serum and 1% penicillin/streptomycin. Both KRAS G12C and BRAF RBD were cloned into the NanoBit vectors ([…] vectors system, Promega) with the orientations SnmBit-KRAS G12C and BRAF RBD-LgBit, respectively, and co-transfected into HEK293 cells. Cells were then selected with 100 μg/mL Hygromycin B (10687010, Thermo Fisher) and Blasticidin (5 μg/mL) for 4 weeks to get the stable cell pool.
On the day of the assay, 75 nL of compound solution was presented in a 384-well assay plate as a 16-point 3-fold dilution starting from a final concentration of 30 μM in DMSO. Then cells were seeded at 10,000 cells/25 μL/well in a 384-well plate. After 3 hours of incubation, 6 μL of volume of Nano-Glo® Live Cell Substrate (Promega) was added into each well. Monitor luminescence using ultra384 model in Envision at 20 minutes. Compounds that facilitate disruption of the KRAS G12C-BRAF RBD complex were identified as those eliciting a decrease of luminescence relative to DMSO control wells.

[2] = molecular target: KRAS G12V binding to BRAF (Homo sapiens (Human), UniProt P01116+P62937, G12V); experiment: KRAS-BRAF with CYPA (500 nM) interaction assay (TR-FRET), G12V; format: biochemical
KRAS G12V binding to BRAF, sequence (P01116-2 other isoform, or with tags, fused parts or gaps G12V): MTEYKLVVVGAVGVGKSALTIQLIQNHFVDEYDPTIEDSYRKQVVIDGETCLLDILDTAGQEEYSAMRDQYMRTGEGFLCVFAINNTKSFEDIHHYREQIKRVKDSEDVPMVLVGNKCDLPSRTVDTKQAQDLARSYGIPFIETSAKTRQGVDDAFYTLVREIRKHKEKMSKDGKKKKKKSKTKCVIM
KRAS G12V binding to BRAF, sequence (P62937 whole entry): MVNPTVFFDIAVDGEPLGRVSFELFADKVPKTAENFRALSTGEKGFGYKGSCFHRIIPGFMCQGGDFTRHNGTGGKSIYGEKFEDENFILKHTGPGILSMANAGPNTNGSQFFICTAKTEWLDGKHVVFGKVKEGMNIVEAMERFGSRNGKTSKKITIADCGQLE
In short: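 A TR-FRET assay measured how compound, in the presence of CYPA, disrupts binding of GMPPNP-loaded 6His-KRAS G12V to BRAF. The buffer contained 25 mM HEPES PH=7.4, 0.002% Tween20, 0.1% BSA, 100 mM NaCl, 5 mM MgCl2 and 10 μM GMPPNP. Compounds ran as a 16-point 3-fold dilution series from 10 μM for 3 hours.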

[3] = system: phosphorylation of ERK, KRAS G12D in AGS cells; experiment: pERK inhibition assay, KRAS G12D; format: cell-based, human; conditions: Homo sapiens, 4 hours
In short: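 ERK phosphorylation is measured after 4 h of compound exposure in attached cells, using a colorimetric immunoassay on fixed, permeabilized monolayers. IC50 is derived by 4-parameter sigmoidal fitting.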

[4] = molecular target: T1, KRAS G12C-BRAF complex; experiment: KRAS-BRAF with CYPA (500 nM) interaction assay (TR-FRET), G12C; format: biochemical

T1 sequence (P01116-2 other isoform, or with tags, fused parts or gaps G12C): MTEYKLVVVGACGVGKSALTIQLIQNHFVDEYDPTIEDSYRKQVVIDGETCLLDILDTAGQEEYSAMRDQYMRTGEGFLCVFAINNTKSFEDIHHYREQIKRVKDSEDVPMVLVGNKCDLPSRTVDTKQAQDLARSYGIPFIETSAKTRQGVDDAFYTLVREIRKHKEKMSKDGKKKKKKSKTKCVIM
T1 sequence (P62937 whole entry): as the sequence (P62937 whole entry) above

Row | Structure (SMILES) | IC50 [1] | IC50 [2] | IC50 [3] | IC50 [4]
1 | CO[C@@H](C)c1ncc(N2CCN(C)CC2)cc1-c1c2c3cc(c(F)cc3n1CC(F)(F)F)-c1cc(O)cc(c1)C[C@H](NC(=O)[C@H](C(C)C)N(C)C(=O)[C@H]1CCN(C(=O)[C@H](F)Cl)C1)C(=O)N1CCC[C@H](N1)C(=O)OCC(C)(C)C2 (atropisomer, axis not shown; (M)) [Example 8, (3S)-1-[(2R)-2-chloro-2-fluoro-acetyl]-N-[(1S)-1-[[(8S,14S)-25-fluoro-4-hydroxy-(21M)-21-[2-[(1S)-1-methoxyethyl]-5-(4-methylpiperazin-1-yl)-3-pyridyl]-18,18-dimethyl-9,15-dioxo-22-(2,2,2-trifluoroethyl)-16-oxa-10,22,28-triazapentacyclo[18.5.2.1^2,6.1^10,14.0^23,27]nonacosa-1(26),2,4,6(29),20,23(27),24-heptaen-8-yl]carbamoyl]-2-methyl-propyl]-N-methyl-pyrrolidine-3-carboxamide] | 0.043 µM | 0.01 µM | 0.09 µM | 0.003 µM
2 | CO[C@@H](C)c1ncc(N2CCN(C)CC2)cc1-c1c2c3cc(c(C)cc3n1CC(F)(F)F)-c1csc(n1)C[C@H](NC(=O)[C@H](C(C)C)N(C)C(=O)C1(F)CCN(C(=O)[C@H](F)Cl)CC1)C(=O)N1CCC[C@H](N1)C(=O)OCC(C)(C)C2 (atropisomer, axis not shown; (M)) [Example 9, 1-[(2R)-2-chloro-2-fluoro-acetyl]-4-fluoro-N-[(1S)-1-[[(7S,13S)-(20M)-20-[2-[(1S)-1-methoxyethyl]-5-(4-methylpiperazin-1-yl)-3-pyridyl]-17,17,24-trimethyl-8,14-dioxo-21-(2,2,2-trifluoroethyl)-15-oxa-4-thia-9,21,27,28-tetrazapentacyclo[17.5.2.1^2,5.1^9,13.0^22,26]octacosa-1(25),2,5(28),19,22(26),23-hexaen-7-yl]carbamoyl]-2-methyl-propyl]-N-methyl-piperidine-4-carboxamide] | 0.064 µM | > 10 µM | 0.023 µM | 0.176 µM
3 | CO[C@@H](C)c1ncc(N2CCN(C)CC2)cc1-c1c2c3cc(c(F)cc3n1CC(F)(F)F)-c1csc(n1)C[C@H](NC(=O)[C@H](C(C)C)N(C)C(=O)C1(F)CCN(C(=O)[C@H](F)Cl)CC1)C(=O)N1CCC[C@H](N1)C(=O)OCC(C)(C)C2 (atropisomer, axis not shown; (M)) [Example 10, 1-[(2R)-2-chloro-2-fluoro-acetyl]-4-fluoro-N-[(1S)-1-[[(7S,13S)-24-fluoro-(20M)-20-[2-[(1S)-1-methoxyethyl]-5-(4-methylpiperazin-1-yl)-3-pyridyl]-17,17-dimethyl-8,14-dioxo-21-(2,2,2-trifluoroethyl)-15-oxa-4-thia-9,21,27,28-tetrazapentacyclo[17.5.2.1^2,5.1^9,13.0^22,26]octacosa-1(25),2,5(28),19,22(26),23-hexaen-7-yl]carbamoyl]-2-methyl-propyl]-N-methyl-piperidine-4-carboxamide] | 0.004 µM | 0.136 µM | 0.016 µM | 0.02 µM
4 | CO[C@@H](C)c1ncc(N2CCN(C)CC2)cc1-c1c2c3cc(c(F)cc3n1CC(F)(F)F)-c1csc(n1)C[C@H](NC(=O)[C@H](C(C)C)N1CCCC3(CN(C(=O)[C@H](F)Cl)C3)C1=O)C(=O)N1CCC[C@H](N1)C(=O)OCC(C)(C)C2 (atropisomer, axis not shown; (M)) [Example 11, (2S)-2-[2-[(2R)-2-chloro-2-fluoro-acetyl]-5-oxo-2,6-diazaspiro[3.5]nonan-6-yl]-N-[(7S,13S)-24-fluoro-(20M)-20-[2-[(1S)-1-methoxyethyl]-5-(4-methylpiperazin-1-yl)-3-pyridyl]-17,17-dimethyl-8,14-dioxo-21-(2,2,2-trifluoroethyl)-15-oxa-4-thia-9,21,27,28-tetrazapentacyclo[17.5.2.1^2,5.1^9,13.0^22,26]octacosa-1(25),2,5(28),19,22(26),23-hexaen-7-yl]-3-methyl-butanamide] | 0.005 µM | 1.03 µM | 0.027 µM | 0.045 µM
5 | CO[C@@H](C)c1ncc(N2CCN(C)CC2)cc1-c1c2c3c(F)c(ccc3n1CC(F)(F)F)-c1csc(n1)C[C@H](NC(=O)[C@H](C(C)C)N1CCCC3(CCN(C(=O)[C@H](F)Cl)CC3)C1=O)C(=O)N1CCC[C@H](N1)C(=O)OCC(C)(C)C2 (atropisomer, axis not shown; (M)) [Example 20, (2S)-2-[9-[(2R)-2-chloro-2-fluoro-acetyl]-1-oxo-2,9-diazaspiro[5.5]undecan-2-yl]-N-[(7S,13S)-25-fluoro-(20M)-20-[2-[(1S)-1-methoxyethyl]-5-(4-methylpiperazin-1-yl)-3-pyridyl]-17,17-dimethyl-8,14-dioxo-21-(2,2,2-trifluoroethyl)-15-oxa-4-thia-9,21,27,28-tetrazapentacyclo[17.5.2.1^2,5.1^9,13.0^22,26]octacosa-1(25),2,5(28),19,22(26),23-hexaen-7-yl]-3-methyl-butanamide] | 0.047 µM | 1.78 µM | 0.098 µM | 0.148 µM
6 | CCn1c(-c2cc(N3CCN(CC(F)(F)F)CC3)cnc2[C@H](C)OC)c2c3cc(c(F)cc31)-c1csc(n1)C[C@H](NC(=O)[C@H](C(C)C)N1CCC3(CN(C(=O)[C@H](F)Cl)C3)C1=O)C(=O)N1CCC[C@H](N1)C(=O)OCC(C)(C)C2 (atropisomer, axis not shown; (M)) [Example 37, (2S)-2-[2-[(2R)-2-chloro-2-fluoro-acetyl]-5-oxo-2,6-diazaspiro[3.4]octan-6-yl]-N-[(7S,13S)-21-ethyl-24-fluoro-(20M)-20-[2-[(1S)-1-methoxyethyl]-5-[4-(2,2,2-trifluoroethyl)piperazin-1-yl]-3-pyridyl]-17,17-dimethyl-8,14-dioxo-15-oxa-4-thia-9,21,27,28-tetrazapentacyclo[17.5.2.1^2,5.1^9,13.0^22,26]octacosa-1(25),2,5(28),19,22(26),23-hexaen-7-yl]-3-methyl-butanamide] |  | 1.36 µM |  | 0.039 µM
7 | CCn1c(-c2cc(N3CCN(CC(F)(F)F)CC3)cnc2[C@H](C)OC)c2c3cc(c(F)cc31)-c1csc(n1)C[C@H](NC(=O)[C@H](C(C)C)N(C)C(=O)C1(F)CCN(C(=O)[C@H](F)Cl)CC1)C(=O)N1CCC[C@H](N1)C(=O)OCC(C)(C)C2 (atropisomer, axis not shown; (M)) [Example 49, 1-[(2R)-2-chloro-2-fluoro-acetyl]-N-[(1S)-1-[[(7S,13S)-21-ethyl-24-fluoro-(20M)-20-[2-[(1S)-1-methoxyethyl]-5-[4-(2,2,2-trifluoroethyl)piperazin-1-yl]-3-pyridyl]-17,17-dimethyl-8,14-dioxo-15-oxa-4-thia-9,21,27,28-tetrazapentacyclo[17.5.2.1^2,5.1^9,13.0^22,26]octacosa-1(25),2,5(28),19,22(26),23-hexaen-7-yl]carbamoyl]-2-methyl-propyl]-4-fluoro-N-methyl-piperidine-4-carboxamide] | 0.008 µM | 0.577 µM | 0.065 µM | 0.015 µM
8 | CCn1c(-c2cc(N3CCOCC3)cnc2[C@H](C)OC)c2c3cc(c(F)cc31)-c1csc(n1)C[C@H](NC(=O)[C@H](C(C)C)N1CC[C@]3(CCN(C(=O)[C@H](F)Cl)C3)C1=O)C(=O)N1CCC[C@H](N1)C(=O)OCC(C)(C)C2 (atropisomer, axis not shown; (M)) [Example 51, (2S)-2-[(5S)-7-[(2R)-2-chloro-2-fluoro-acetyl]-1-oxo-2,7-diazaspiro[4.4]nonan-2-yl]-N-[(7S,13S)-21-ethyl-24-fluoro-(20M)-20-[2-[(1S)-1-methoxyethyl]-5-morpholino-3-pyridyl]-17,17-dimethyl-8,14-dioxo-15-oxa-4-thia-9,21,27,28-tetrazapentacyclo[17.5.2.1^2,5.1^9,13.0^22,26]octacosa-1(25),2,5(28),19,22(26),23-hexaen-7-yl]-3-methyl-butanamide] | 0.034 µM | 6.44 µM | 0.062 µM | 0.074 µM
